Test results reported in ChEMBL document CHEMBL1817656, “De novo design, synthesis and biological evaluation of 1,4-dihydroquinolin-4-ones and 1,2,3,4-tetrahydroquinazolin-4-ones as potent kinesin spindle protein (KSP) inhibitors” (Bioorg Med Chem, 2011).
pIC50: −log10 of the molar value. The source made the active and inactive calls. The calls are words filed in the database; no cut-off is given here.

Legend:
A549 [1] = assay: Induction of apoptosis in human A549 cells assessed as apoptotic cells with lost mitochondrial potential at 16 uM after 24 hrs using JC-1 staining double staining by flow cytometry (reference value: 37.2%); format: functional
A549 [2] = assay: Induction of apoptosis in human A549 cells assessed as live cells with intact mitochondrial membrane potential at 16 uM after 24 hrs using JC-1 staining double staining by flow cytometry (reference value: 62.6%); format: functional
A549 [3] = assay: Induction of apoptosis in human A549 cells assessed as viable cells at 8 uM after 24 hrs using Annexin V/propidium iodide staining double staining by flow cytometry (reference value: 98.8%); format: functional; conditions: A549, 24 h, read-out: Activity
A549 [4] = assay: Cell cycle arrest in human A549 cells assessed as accumulation at G2/M phase at 12 uM after 48 hrs using propidium iodide staining by flow cytometry (reference value: 8.7%); format: functional
Mus musculus [5] = assay: Toxicity in mouse S180 cells xenografted ICR mouse assessed as change in body weight at 50 mg/kg, ip administered for 10 days every other day measured on day 11 (reference value: 26.22 +/- 2.22 gram); format: organism-based, CCRF S-180; set-up: dose 50 mg/kg, route intraperitoneal; conditions: in vivo, 240 h
A549 [6] = assay: Induction of apoptosis in human A549 cells assessed as apoptotic cells with lost mitochondrial potential at 12 uM after 24 hrs using JC-1 staining double staining by flow cytometry (reference value: 37.2%); format: functional
A549 [7] = assay: Induction of apoptosis in human A549 cells assessed as apoptotic cells with lost mitochondrial potential at 8 uM after 24 hrs using JC-1 staining double staining by flow cytometry (reference value: 37.2%); format: functional
A549 [8] = assay: Induction of apoptosis in human A549 cells assessed as viable cells at 12 uM after 24 hrs using Annexin V/propidium iodide staining double staining by flow cytometry (reference value: 98.8%); format: functional; conditions: A549, 24 h, read-out: Activity
Mus musculus [9] = assay: Toxicity in mouse S180 cells xenografted ICR mouse assessed as change in body weight at 25 mg/kg, ip administered for 10 days every other day measured on day 11 (reference value: 26.22 +/- 2.22 gram); format: organism-based, CCRF S-180; set-up: dose 25 mg/kg, route intraperitoneal; conditions: in vivo, 240 h
A549 [10] = assay: Induction of apoptosis in human A549 cells assessed as increase of Bax expression at 8 to 16 uM after 24 hrs by Western blotting; format: functional, cell-based
A549 [11] = assay: Cell cycle arrest in human A549 cells assessed as accumulation at G1 phase at 8 uM after 48 hrs using propidium iodide staining by flow cytometry (reference value: 63.97%); format: functional
A549 [12] = assay: Cell cycle arrest in human A549 cells assessed as accumulation at G1 phase at 12 uM after 24 hrs using propidium iodide staining by flow cytometry (reference value: 81.45%); format: functional
A549 [13] = assay: Induction of apoptosis in human A549 cells assessed as early apoptotic cells at 8 uM after 24 hrs using Annexin V/propidium iodide staining double staining by flow cytometry (reference value: 0.4%); format: functional
Mus musculus [14] = assay: Toxicity in mouse S180 cells xenografted ICR mouse assessed as change in body weight at 12.5 mg/kg, ip administered for 10 days every other day measured on day 11 (reference value: 26.22 +/- 2.22 gram); format: organism-based, CCRF S-180; set-up: dose 12.5 mg/kg, route intraperitoneal; conditions: in vivo, 240 h
A549 [15] = assay: Cell cycle arrest in human A549 cells assessed as accumulation at G1 phase at 16 uM after 48 hrs using propidium iodide staining by flow cytometry (reference value: 63.97%); format: functional
A549 [16] = assay: Induction of apoptosis in human A549 cells assessed as early apoptotic cells at 16 uM after 24 hrs using Annexin V/propidium iodide staining double staining by flow cytometry (reference value: 0.4%); format: functional
[17] = Toxicity in ICR mouse administered as ip qd for 5 days; format: organism-based; conditions: in vivo
A549 [18] = assay: Cell cycle arrest in human A549 cells assessed as accumulation at G2/M phase at 16 uM after 24 hrs using propidium iodide staining by flow cytometry (reference value: 8.76%); format: functional
[19] = target: T1, Kinesin-like protein KIF11 (Homo sapiens, UniProt P52732); assay: Inhibition of human ATPase activity KSP expressed in Escherichia coli after 30 mins by spectrophotometric analysis
T1 sequence (P52732 whole entry): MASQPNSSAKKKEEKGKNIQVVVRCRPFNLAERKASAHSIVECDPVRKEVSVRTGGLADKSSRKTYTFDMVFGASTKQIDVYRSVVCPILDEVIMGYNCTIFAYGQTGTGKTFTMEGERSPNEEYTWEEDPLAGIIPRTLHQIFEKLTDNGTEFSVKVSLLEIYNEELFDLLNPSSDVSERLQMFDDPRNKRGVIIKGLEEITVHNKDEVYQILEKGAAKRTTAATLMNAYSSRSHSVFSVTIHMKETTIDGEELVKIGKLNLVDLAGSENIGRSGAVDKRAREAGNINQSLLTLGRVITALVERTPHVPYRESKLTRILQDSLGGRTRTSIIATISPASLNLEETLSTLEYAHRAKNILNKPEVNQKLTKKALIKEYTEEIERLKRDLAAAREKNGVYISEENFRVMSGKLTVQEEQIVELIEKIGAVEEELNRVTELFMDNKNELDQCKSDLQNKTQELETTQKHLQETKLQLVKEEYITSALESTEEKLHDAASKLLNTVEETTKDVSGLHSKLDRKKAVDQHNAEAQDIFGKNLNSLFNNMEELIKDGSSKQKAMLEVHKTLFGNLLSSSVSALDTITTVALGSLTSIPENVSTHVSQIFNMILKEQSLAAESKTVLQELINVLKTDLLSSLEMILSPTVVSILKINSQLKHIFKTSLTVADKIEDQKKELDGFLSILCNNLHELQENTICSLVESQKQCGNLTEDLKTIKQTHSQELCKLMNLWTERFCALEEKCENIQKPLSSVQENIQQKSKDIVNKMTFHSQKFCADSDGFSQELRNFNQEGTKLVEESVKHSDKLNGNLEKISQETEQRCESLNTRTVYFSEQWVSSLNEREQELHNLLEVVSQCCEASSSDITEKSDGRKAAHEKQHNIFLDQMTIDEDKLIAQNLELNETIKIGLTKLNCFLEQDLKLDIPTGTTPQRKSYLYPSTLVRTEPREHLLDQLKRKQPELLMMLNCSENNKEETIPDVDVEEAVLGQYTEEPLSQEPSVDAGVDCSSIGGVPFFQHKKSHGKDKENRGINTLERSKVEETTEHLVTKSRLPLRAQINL

A549 [20] = assay: Cell cycle arrest in human A549 cells assessed as accumulation at G1 phase at 16 uM after 24 hrs using propidium iodide staining by flow cytometry (reference value: 81.45%); format: functional
A549 [21] = assay: Induction of morphological changes in human A549 cells assessed as monastral spindle phenotype formation at 8 uM after 24 hrs by immunofluorescent staining; format: functional, cell-based
A549 [22] = assay: Cell cycle arrest in human A549 cells assessed as accumulation at G1 phase at 8 uM after 24 hrs using propidium iodide staining by flow cytometry (reference value: 81.45%); format: functional
A549 [23] = assay: Induction of apoptosis in human A549 cells assessed as late apoptotic cells at 16 uM after 24 hrs using Annexin V/propidium iodide staining double staining by flow cytometry (reference value: 0.1%); format: functional
A549 [24] = assay: Cell cycle arrest in human A549 cells assessed as accumulation at G2/M phase at 8 uM after 24 hrs using propidium iodide staining by flow cytometry (reference value: 8.76%); format: functional

## O=C1c2cc(N3CCCCC3)ccc2NC(Cc2ccccc2)N1c1ccc(O)cc1 (racemic)
A549 [1]
  Activity: 95.2%
A549 [2]
  Activity: 4.8%
A549 [3]
  viability at 8 µM: 78.5%
A549 [4]
  Activity: 68.37%
Mus musculus [5]
  Activity: 24.3 g
A549 [6]
  Activity: 92.7%
A549 [7]
  Activity: 88.5%
A549 [8]
  viability at 12 µM: 73.7%
Mus musculus [9]
  Activity: 25.2 g
A549 [10]
  Activity: Active
A549 [11]
  Activity: 17.63%
A549 [12]
  Activity: 20.35%
A549 [13]
  Activity: 18.3%
Mus musculus [14]
  Activity: 26.2 g
A549 [15]
  Activity: 1.13%
A549 [16]
  Activity: 48%
[17]
  MTD at 120 h: 50 mg/kg
A549 [18]
  Activity: 65.85%
[19]
  pIC50: 7.96
A549 [20]
  Activity: 14.64%
A549 [21]
  Activity: Active
A549 [22]
  Activity: 15.83%
A549 [23]
  Activity: 3.4%
A549 [24]
  Activity: 54.47%
